In patent publication US8703961B2, “Thiazole derivatives for the treatment of diseases such as cancer” (Merck Patent GmbH, priority 2009, dated 2014):

Columns and labels:
Test in all cases: filter binding kinase assay
Type in all cases: biochemical
MAP4K2 (GCK) = biological target: T1, MAP4K2 (GCK) (Homo sapiens, UniProt Q12851); conditions: for IC50: derived from % inhibition at 1 μM
T1 construct: purchased
T1 sequence (Q12851 1-820): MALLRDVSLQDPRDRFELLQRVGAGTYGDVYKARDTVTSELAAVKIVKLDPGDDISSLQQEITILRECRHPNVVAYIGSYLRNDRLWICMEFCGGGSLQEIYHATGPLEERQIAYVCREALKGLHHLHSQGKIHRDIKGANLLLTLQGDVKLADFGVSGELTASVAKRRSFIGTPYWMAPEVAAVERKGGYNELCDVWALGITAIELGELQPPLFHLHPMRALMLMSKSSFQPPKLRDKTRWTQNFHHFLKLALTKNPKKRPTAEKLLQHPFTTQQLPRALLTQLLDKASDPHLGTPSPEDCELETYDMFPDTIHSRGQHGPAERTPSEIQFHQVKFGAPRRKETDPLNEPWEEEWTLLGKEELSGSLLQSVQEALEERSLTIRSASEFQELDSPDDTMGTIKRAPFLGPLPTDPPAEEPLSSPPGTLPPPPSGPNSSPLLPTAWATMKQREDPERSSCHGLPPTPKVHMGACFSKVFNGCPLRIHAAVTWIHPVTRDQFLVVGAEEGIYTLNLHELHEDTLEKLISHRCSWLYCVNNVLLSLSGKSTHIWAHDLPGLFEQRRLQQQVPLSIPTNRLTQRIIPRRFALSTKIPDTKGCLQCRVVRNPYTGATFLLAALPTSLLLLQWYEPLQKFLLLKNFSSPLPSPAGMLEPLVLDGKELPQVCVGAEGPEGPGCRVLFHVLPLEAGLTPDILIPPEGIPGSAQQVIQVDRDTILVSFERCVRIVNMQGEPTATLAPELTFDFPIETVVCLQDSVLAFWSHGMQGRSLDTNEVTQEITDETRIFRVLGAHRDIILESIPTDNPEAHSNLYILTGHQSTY
Method in brief: (§1)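 Each reaction ran at ambient temperature following a five-minute compound preincubation, was started with ATP (5, 20 or 50 […] stock, per enzyme) and stopped with acid; substrate phosphorylation was read by scintillation counting of P81 filters.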

GSK3B (GSK3b) = biological target: T2, GSK3B (GSK3b) (Homo sapiens, UniProt P49841); conditions: for IC50: derived from % inhibition at 1 μM
T2 construct: purchased
Method in brief: as §1

MELK = biological target: T3, MELK (Homo sapiens, UniProt Q14680); conditions: derived from % inhibition at 1 μM
T3 construct: purchased
Method in brief: as §1

IKBKE = biological target: T4, IKBKE (Homo sapiens, UniProt Q14164); conditions: derived from % inhibition at 1 μM
T4 construct: purchased
T4 sequence (Q14164 1-716): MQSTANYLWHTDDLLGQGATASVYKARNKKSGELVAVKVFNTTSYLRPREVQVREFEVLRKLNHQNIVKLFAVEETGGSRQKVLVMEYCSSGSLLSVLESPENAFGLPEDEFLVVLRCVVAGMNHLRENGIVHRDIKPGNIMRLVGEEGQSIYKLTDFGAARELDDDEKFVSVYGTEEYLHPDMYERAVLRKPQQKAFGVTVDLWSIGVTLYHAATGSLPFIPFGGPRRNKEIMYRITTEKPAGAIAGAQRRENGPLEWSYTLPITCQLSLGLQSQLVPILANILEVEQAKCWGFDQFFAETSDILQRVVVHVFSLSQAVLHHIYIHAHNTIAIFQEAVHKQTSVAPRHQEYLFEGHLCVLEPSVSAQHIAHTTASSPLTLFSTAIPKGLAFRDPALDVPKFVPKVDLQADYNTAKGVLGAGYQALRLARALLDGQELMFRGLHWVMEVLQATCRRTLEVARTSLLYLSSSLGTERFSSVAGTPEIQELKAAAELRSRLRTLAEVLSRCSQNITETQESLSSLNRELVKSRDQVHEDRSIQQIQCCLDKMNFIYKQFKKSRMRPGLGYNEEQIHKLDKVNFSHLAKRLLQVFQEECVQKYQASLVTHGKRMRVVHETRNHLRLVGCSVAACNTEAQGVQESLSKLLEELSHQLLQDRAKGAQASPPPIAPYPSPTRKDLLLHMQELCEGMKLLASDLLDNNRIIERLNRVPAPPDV
Method in brief: as §1

PIM2 = biological target: T5, PIM2 (Homo sapiens, UniProt Q9P1W9); conditions: derived from % inhibition at 1 μM
T5 construct: purchased
Method in brief: as §1

PAK2 = biological target: T6, PAK2 (Homo sapiens, UniProt Q13177); conditions: derived from % inhibition at 1 μM
T6 construct: purchased
Method in brief: as §1

HIPK1 = biological target: T7, HIPK1 (Homo sapiens, UniProt Q86Z02); conditions: for IC50: derived from % inhibition at 1 μM; for remaining activity at 1 µM: read-out: residual kinase activity HIPK1
T7 construct: purchased
Method in brief: as §1

STK3 = biological target: T8, STK3 (Homo sapiens, UniProt Q13188); conditions: derived from % inhibition at 1 μM
T8 construct: purchased
T8 sequence (Q13188 1-491): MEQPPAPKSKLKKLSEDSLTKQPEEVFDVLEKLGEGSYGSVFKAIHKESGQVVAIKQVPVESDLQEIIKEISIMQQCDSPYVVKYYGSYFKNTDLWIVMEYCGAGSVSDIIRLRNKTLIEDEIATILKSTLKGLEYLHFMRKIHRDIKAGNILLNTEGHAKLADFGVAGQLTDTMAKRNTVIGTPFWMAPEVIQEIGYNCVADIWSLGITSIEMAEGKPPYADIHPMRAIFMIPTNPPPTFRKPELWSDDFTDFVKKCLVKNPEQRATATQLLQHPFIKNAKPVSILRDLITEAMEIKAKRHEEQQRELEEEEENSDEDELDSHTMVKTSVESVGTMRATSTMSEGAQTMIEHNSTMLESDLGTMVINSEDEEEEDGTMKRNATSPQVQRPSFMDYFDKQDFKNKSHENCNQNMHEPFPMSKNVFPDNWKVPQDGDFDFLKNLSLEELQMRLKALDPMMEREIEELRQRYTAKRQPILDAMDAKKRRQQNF
Method in brief: as §1

CHEK2 = biological target: T9, CHEK2 (Homo sapiens, UniProt O96017); conditions: derived from % inhibition at 1 μM
T9 construct: purchased
Method in brief: as §1

PAK6 = biological target: T10, PAK6 (Homo sapiens, UniProt Q9NQU5); conditions: derived from % inhibition at 1 μM
T10 construct: purchased
Method in brief: as §1

T6 sequence (Q13177 whole entry, species assumed): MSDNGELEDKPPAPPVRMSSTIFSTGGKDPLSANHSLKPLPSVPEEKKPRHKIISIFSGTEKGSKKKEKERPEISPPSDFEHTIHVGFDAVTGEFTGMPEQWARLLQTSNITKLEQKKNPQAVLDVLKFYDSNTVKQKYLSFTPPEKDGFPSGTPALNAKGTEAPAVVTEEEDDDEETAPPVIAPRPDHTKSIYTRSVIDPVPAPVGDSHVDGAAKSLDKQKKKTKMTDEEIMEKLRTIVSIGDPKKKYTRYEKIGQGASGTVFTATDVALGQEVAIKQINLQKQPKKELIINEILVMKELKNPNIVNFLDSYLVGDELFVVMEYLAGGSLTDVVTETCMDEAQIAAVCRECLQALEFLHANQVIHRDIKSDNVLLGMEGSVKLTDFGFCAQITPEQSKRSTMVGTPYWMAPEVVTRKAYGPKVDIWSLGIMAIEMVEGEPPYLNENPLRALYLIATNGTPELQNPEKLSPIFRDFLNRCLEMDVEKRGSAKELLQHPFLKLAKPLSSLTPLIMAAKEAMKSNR
T7 sequence (Q86Z02 whole entry, species assumed): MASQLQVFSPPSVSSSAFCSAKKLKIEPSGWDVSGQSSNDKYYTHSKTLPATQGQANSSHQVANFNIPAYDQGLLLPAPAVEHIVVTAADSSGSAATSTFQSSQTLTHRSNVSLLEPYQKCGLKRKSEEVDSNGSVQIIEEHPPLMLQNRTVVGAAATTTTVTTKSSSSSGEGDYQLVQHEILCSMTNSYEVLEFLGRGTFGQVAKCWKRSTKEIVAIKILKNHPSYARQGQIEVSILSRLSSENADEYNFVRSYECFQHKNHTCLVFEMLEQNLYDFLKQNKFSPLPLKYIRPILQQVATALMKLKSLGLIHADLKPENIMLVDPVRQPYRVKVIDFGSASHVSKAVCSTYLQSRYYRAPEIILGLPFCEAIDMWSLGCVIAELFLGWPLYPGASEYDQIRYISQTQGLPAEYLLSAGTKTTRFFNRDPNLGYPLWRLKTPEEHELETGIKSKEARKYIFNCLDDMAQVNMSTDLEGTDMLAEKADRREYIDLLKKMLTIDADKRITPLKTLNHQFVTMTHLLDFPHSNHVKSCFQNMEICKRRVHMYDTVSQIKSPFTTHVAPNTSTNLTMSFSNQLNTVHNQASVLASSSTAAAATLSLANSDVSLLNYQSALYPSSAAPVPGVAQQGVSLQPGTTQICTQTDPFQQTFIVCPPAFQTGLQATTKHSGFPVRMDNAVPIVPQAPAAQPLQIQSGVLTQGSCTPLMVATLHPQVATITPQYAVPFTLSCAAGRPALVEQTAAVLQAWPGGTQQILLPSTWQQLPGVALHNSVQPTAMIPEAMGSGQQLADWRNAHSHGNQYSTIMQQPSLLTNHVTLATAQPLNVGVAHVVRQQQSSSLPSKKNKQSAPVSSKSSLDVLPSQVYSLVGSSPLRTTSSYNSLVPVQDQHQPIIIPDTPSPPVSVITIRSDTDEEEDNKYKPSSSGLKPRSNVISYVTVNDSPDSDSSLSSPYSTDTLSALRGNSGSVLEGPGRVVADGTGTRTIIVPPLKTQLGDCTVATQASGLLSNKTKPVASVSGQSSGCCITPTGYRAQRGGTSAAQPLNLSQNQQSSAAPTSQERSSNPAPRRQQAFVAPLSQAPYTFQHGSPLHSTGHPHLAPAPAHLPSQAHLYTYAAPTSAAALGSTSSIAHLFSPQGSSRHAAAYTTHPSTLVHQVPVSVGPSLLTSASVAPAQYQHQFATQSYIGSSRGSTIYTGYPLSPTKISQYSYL
T9 sequence (O96017 whole entry, species assumed): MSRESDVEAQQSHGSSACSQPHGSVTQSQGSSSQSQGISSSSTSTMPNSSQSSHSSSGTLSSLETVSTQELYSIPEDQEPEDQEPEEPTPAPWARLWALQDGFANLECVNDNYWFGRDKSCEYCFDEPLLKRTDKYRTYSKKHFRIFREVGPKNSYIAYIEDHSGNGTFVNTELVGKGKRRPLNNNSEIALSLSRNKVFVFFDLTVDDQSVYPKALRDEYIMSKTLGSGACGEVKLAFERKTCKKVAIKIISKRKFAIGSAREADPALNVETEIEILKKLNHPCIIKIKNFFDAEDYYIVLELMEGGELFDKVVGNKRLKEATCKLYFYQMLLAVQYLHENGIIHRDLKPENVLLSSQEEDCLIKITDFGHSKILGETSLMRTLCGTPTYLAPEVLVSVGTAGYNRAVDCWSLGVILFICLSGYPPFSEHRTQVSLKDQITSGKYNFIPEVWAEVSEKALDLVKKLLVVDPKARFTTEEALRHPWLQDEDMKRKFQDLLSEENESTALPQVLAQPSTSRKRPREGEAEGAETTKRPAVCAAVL
T3 sequence (Q14680 whole entry, species assumed): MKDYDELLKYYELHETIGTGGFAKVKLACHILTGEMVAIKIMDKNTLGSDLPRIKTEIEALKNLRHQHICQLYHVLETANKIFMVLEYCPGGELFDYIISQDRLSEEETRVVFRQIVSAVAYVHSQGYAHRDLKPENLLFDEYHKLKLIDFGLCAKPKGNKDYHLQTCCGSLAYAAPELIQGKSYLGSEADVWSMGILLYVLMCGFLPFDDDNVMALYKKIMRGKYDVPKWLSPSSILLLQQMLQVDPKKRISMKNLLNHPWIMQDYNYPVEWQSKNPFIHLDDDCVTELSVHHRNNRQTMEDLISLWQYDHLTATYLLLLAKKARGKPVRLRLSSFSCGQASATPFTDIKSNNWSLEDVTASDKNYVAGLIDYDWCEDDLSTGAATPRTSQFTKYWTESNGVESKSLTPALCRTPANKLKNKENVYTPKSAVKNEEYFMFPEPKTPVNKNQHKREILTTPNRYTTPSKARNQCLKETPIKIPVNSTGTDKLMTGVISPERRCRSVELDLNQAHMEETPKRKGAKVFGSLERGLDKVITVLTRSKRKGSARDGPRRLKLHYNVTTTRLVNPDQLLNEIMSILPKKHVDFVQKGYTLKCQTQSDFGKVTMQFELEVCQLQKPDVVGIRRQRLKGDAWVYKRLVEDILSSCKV
T10 sequence (Q9NQU5 whole entry, species assumed): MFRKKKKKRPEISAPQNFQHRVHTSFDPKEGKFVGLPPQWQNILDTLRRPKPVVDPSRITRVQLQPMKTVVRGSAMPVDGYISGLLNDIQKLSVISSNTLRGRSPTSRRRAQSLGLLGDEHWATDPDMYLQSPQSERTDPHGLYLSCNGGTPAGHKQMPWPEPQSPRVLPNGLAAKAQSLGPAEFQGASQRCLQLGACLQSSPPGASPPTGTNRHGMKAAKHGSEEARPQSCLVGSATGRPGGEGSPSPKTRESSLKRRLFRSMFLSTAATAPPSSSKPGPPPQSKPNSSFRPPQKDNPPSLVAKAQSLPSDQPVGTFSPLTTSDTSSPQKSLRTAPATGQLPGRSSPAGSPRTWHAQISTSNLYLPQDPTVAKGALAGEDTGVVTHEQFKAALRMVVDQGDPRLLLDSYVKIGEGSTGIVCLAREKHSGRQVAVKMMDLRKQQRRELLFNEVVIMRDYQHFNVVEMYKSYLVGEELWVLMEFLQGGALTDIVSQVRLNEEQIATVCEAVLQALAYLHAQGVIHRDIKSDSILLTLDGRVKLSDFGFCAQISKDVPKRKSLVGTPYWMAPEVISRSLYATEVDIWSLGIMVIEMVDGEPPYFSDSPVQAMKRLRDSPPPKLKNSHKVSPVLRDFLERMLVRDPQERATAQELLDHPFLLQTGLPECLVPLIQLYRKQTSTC
T5 sequence (Q9P1W9 whole entry, species assumed): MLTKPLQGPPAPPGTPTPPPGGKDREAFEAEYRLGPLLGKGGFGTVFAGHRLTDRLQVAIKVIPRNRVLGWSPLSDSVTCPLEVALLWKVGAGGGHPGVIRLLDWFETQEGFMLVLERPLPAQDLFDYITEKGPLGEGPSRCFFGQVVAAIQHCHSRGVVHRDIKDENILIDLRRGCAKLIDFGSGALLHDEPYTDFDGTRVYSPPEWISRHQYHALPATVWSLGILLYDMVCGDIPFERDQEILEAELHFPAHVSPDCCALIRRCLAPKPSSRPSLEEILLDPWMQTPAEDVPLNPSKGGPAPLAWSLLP
T2 sequence (P49841 whole entry, species assumed): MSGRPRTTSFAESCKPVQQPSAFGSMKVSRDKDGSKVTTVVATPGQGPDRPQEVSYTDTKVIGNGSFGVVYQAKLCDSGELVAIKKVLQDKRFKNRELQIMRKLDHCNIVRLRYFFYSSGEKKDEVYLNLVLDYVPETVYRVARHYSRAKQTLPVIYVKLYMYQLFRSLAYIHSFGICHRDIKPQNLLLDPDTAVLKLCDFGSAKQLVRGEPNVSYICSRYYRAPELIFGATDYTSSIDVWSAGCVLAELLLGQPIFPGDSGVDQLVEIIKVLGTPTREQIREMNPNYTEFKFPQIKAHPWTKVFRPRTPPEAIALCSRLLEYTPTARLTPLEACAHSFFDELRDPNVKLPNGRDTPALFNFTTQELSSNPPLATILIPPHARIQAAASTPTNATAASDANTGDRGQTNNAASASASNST

Structure (SMILES) | IC50 (MAP4K2 (GCK)) [nM] | IC50 (GSK3B (GSK3b)) [nM] | IC50 (MELK) [nM] | IC50 (IKBKE) [nM] | IC50 (PIM2) [nM] | IC50 (PAK2) [nM] | IC50 (HIPK1) [nM] | IC50 (STK3) [nM] | IC50 (CHEK2) [nM] | IC50 (PAK6) [nM] | remaining activity at 1 µM (MAP4K2 (GCK); read-out: residual kinase activity GCK) [%] | remaining activity at 1 µM (GSK3B (GSK3b); read-out: residual kinase activity GSK3b) [%] | remaining activity at 1 µM (HIPK1) [%]
c1ccc(Cc2c[nH]c3ncsc23)cc1 [Compound A7, 6-benzyl-4H-pyrrolo[2,3-d]thiazole] | 1000 to 10000 | 1000 to 10000 | 1000 to 10000 | 10000 to 100000 | > 1000 | 1000 to 10000 | > 1000 | 1000 to 10000 | > 1000 | > 1000 | – | – | –
Nc1ncsc1C#Cc1cnc2[nH]ccc2c1 [Compound A22, 5-(1H-pyrrolo[2,3-b]pyridin-5-ylethynyl)thiazol-4-ylamine] | 10 to 1000 | 10 to 1000 | > 1000 | > 1000 | 10000 to 100000 | > 1000 | 10 to 1000 | 10000 to 100000 | > 1000 | 10000 to 100000 | 31 | 9 | 36
CC(C)(C)OC(=O)Nc1nc(-c2ccncc2)sc1C#CCN1CCOCC1 [Compound A25, tert-butyl[5-(3-morpholin-4-ylprop-1-ynyl)-2-pyridin-4-ylthiazol-4-yl]-carbamate] | > 1000 | > 1000 | > 1000 | 1000 to 10000 | 1000 to 10000 | > 1000 | 10 to 1000 | > 1000 | > 1000 | 10000 to 100000 | – | – | 48
CC(C)(C)OC(=O)Nc1ncsc1C#CCN1C(=O)c2ccccc2C1=O [Compound A26, tert-butyl{5-[3-(1,3-dioxo-1,3-dihydroisoindol-2-yl)prop-1-ynyl]-thiazol-4-yl}carbamate] | 1000 to 10000 | 1000 to 10000 | > 1000 | 10000 to 100000 | > 1000 | > 1000 | > 1000 | > 1000 | > 1000 | > 1000 | – | – | –
Nc1ncsc1C#Cc1cccc(O)c1 [Compound A27, 3-(4-aminothiazol-5-ylethynyl)phenol] | 1000 to 10000 | 1000 to 10000 | 1000 to 10000 | > 1000 | 1000 to 10000 | > 1000 | 1000 to 10000 | 1000 to 10000 | 10000 to 100000 | 10000 to 100000 | – | – | –
